The values below come from PubChem BioAssay (NCI).

Test systems include HT29 colon; SK-OV-3 ovarian; SF-539 CNS; MOLT-4 leukemia; SR leukemia; A498 renal; MCF7 breast; T-47D breast; 786-0 renal; HS 578T breast.
What all share (assay): DTP human tumour cell line panel, 48 h

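Following 48 hours of exposure in 96-well plates, responses at five concentrations were used to interpolate endpoints linearly. The concentration for full growth arrest is given as TGI.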

In the case of `O=C(N/N=C/c1cc(Br)cc(Br)c1[O-])c1ccccc1O.O=C(N/N=C/c1cc(Br)cc(Br)c1[O-])c1ccccc1O.[Fe+2]`, the concentration for total growth inhibition (TGI) in the assay with HT29 colon is 19.7 µM; in the assay with SK-OV-3 ovarian, 13.9 µM; in the assay on SF-539 CNS, 14.1 µM; in the assay with MOLT-4 leukemia it was 19.8 µM.
`COc1c(Br)cc(CC(N)=O)c(O)c1Br`: the TGI with HT29 colon, with SK-OV-3 ovarian, in the assay with SR leukemia, with SF-539 CNS, in the assay on A498 renal and in the assay on MOLT-4 leukemia was above 100 µM in each case.
With `CNC(=O)N(CCC#N)[C@H]1CCCC[C@@H]1N(C(=O)NC)c1ccccc1`, the concentration for total growth inhibition (TGI) in the assay with HT29 colon, with SK-OV-3 ovarian, with SR leukemia, in the assay on MCF7 breast, with SF-539 CNS and in the assay with T-47D breast was above 100 µM throughout. For the same compound, the TGI with 786-0 renal and in the assay on MOLT-4 leukemia was above 100 µM throughout.
Take `O=C1C=CC(=O)c2c(O)c(NCCc3ccc(O)cc3)c(Cl)c(O)c21`: the TGI in the assay with HT29 colon, with SK-OV-3 ovarian, with MCF7 breast, in the assay on SF-539 CNS, with T-47D breast and in the assay with 786-0 renal was above 10 µM each time. Moreover, the TGI with MOLT-4 leukemia is above 10 µM.
On to `O=C(CC1=NCCN1)c1ccccc1`, for which the total growth inhibition concentration (TGI) in the assay on HT29 colon was above 750 µM; in the assay with SK-OV-3 ovarian it was above 750 µM; in the assay with MCF7 breast it was above 750 µM; in the assay with SF-539 CNS, above 750 µM; with A498 renal it was above 75 µM; with MOLT-4 leukemia it was above 750 µM.
As to `Cc1nc(C)c(Cc2ccccc2)o1`, the TGI with HT29 colon, in the assay on SK-OV-3 ovarian, in the assay on MCF7 breast, in the assay on SF-539 CNS, in the assay on T-47D breast and in the assay with HS 578T breast was above 100 µM in each case. Moreover, the concentration for total growth inhibition (TGI) with 786-0 renal, with A498 renal and with MOLT-4 leukemia was above 100 µM each time.
Take `NC(N)=Nc1ncccc1[N+](=O)[O-]`: the total growth inhibition concentration (TGI) in the assay on HT29 colon is above 100 µM; in the assay on SK-OV-3 ovarian, above 100 µM; in the assay with MCF7 breast, above 64.4 µM; in the assay on SF-539 CNS, above 100 µM; with A498 renal, above 100 µM; with MOLT-4 leukemia, above 100 µM.
Take `CC1(C(=O)O)CCCC1C(=O)O` (stereo not given): the total growth inhibition concentration (TGI) in the assay with HT29 colon, with T-47D breast, with HS 578T breast, in the assay on 786-0 renal, with A498 renal and in the assay on MOLT-4 leukemia was above 100 µM throughout.
In the case of `COC1(OC)CCCCC2c3cccc(OC(C)=O)c3C21OC(C)=O` (stereo not given), the concentration for total growth inhibition (TGI) in the assay with HT29 colon, with SK-OV-3 ovarian, in the assay on SR leukemia, with SF-539 CNS, in the assay with 786-0 renal and in the assay on MOLT-4 leukemia was above 100 µM throughout.
As to `CC1S/C(=N/c2nnc(-c3ccccc3)o2)NC1=O` (stereo not given), the TGI is 69.8 µM in the assay with HT29 colon; above 100 µM in the assay on MCF7 breast; above 100 µM with SF-539 CNS; above 100 µM in the assay on T-47D breast; above 100 µM in the assay with HS 578T breast; 85.4 µM with 786-0 renal. The TGI in the assay with A498 renal and in the assay on MOLT-4 leukemia was above 100 µM each time.
Turning to `C=C1CC(C)(c2ccc(Nc3nc4ccccc4c4occc34)cc2)OC1=O` (stereo not given), the TGI with HT29 colon is 12.6 µM; with SK-OV-3 ovarian, 24.1 µM; in the assay on SR leukemia, 4.53 µM; in the assay with MCF7 breast it was above 100 µM; in the assay with SF-539 CNS it was 4.5 µM; in the assay with T-47D breast it was 6.85 µM. Further, the TGI amounted to 3.79 µM in the assay on 786-0 renal and 33.8 µM in the assay on A498 renal.
As to `O=C(Nc1cccc(O)c1)C(=O)C(C(=O)c1ccccc1F)C1OC(=O)c2ccccc21` (stereo not given), the total growth inhibition concentration (TGI) in the assay with HT29 colon was above 100 µM; in the assay on SK-OV-3 ovarian it was above 100 µM; in the assay with SR leukemia it was 83.7 µM; in the assay on SF-539 CNS, 40.2 µM; in the assay on A498 renal it was above 100 µM; in the assay with MOLT-4 leukemia, above 100 µM.
Regarding `O=C(O)C(CO)NC(=O)n1c2ccccc2c2ccccc21` (stereo not given), the TGI in the assay on HT29 colon, with SK-OV-3 ovarian, with SR leukemia, in the assay with SF-539 CNS, in the assay with 786-0 renal and with MOLT-4 leukemia was above 100 µM in each case.
In the case of `O=C1C=C(c2ccccc2)O/C1=C/C(=O)c1ccc(Cl)cc1`, the TGI in the assay on HT29 colon was 36.5 µM; with SK-OV-3 ovarian, above 100 µM; in the assay on MCF7 breast it was 30.1 µM; in the assay on SF-539 CNS it was 43.4 µM; in the assay with HS 578T breast, 55.5 µM; in the assay with 786-0 renal, 29.9 µM. Further, the TGI was 75.4 µM with A498 renal and above 100 µM in the assay with MOLT-4 leukemia.
For the compound `COc1ccc2cc(NC(=O)N/N=C\c3ccc(Cl)cc3)ccc2c1`, the TGI is above 100 µM with HT29 colon; above 100 µM with SK-OV-3 ovarian; above 100 µM with SR leukemia; above 100 µM with MCF7 breast; above 100 µM with SF-539 CNS; 68.8 µM in the assay on HS 578T breast. For the same compound, the total growth inhibition concentration (TGI) in the assay on 786-0 renal and with MOLT-4 leukemia was above 100 µM throughout.
Take `CC(=S)N=Cc1c(O)cc(C)oc1=O`: the total growth inhibition concentration (TGI) with HT29 colon, with SK-OV-3 ovarian, with MCF7 breast, with SF-539 CNS, in the assay on T-47D breast and in the assay on HS 578T breast was above 100 µM throughout. Moreover, the concentration for total growth inhibition (TGI) with 786-0 renal, in the assay with A498 renal and with MOLT-4 leukemia was above 100 µM throughout.
Consider `CCNC(=O)C1CCCN1C(=O)C(CCCN=C(N)N)NC(=O)C(CC(C)C)NC(=O)C(Cc1c[nH]c2ccccc12)NC(=O)C(Cc1ccc(O)cc1)NC(=O)C(CO)NC(=O)C(Cc1c[nH]c2ccccc12)NC(=O)C(Cc1cnc[nH]1)NC(=O)C1CCC(=O)N1` (stereo not given), for which the TGI with HT29 colon, with SK-OV-3 ovarian, in the assay with SR leukemia, in the assay on MCF7 breast, in the assay on SF-539 CNS and with HS 578T breast was above 100 µM in each case. For the same compound, the TGI in the assay with 786-0 renal, in the assay with A498 renal and in the assay on MOLT-4 leukemia was above 100 µM each time.
